Source: patent publication US12054714B2, “Peptide docking vehicle for targeted nucleic acid delivery” (Sirnaomics, Inc., priority 2019, dated 2024)
{GalNAc3} = trivalent GalNAc cluster through an NHC6 amino-hexyl linker

Key:
ahsa1 = experiment: Dose-response screen in primary mouse hepatocytes, ahsa1-specific probe (standard control); assay type: cell-based; conditions: 72 hours
Experimental: (§1) Dose-response screens for GalNAc-conjugated siRNAs (mTTR1-PDoV3-GalNAc3, mTTR1-PDoV2-GalNAc3, mTTR2-GalNAc3 positive control, mTTR2-GalNAc3 positive control) were performed using primary mouse hepatocytes for target TTR. The cell density was 40000 cells/96 well. The concentration was from: highest at 1 μM in 5-fold dilutions to lowest at […]. Cells were transfected by direct incubation for 72 hours. The data was read out by bDNA assay. The data was analyzed by XLfit software. TTR signal normalized to gapdh, mean of quadruplicates, mock-treated cells set=1, Xlfit for calculation of IC50 values. The primary hepatocytes used were purchased from Primacyt, Germany (lot MH181219), derived from CD 1 mice, and treated with siRNA right after thawing.
(§2) The two siRNAs were both conjugated to trivalent GalNAc clusters at the 3′ end (mTTR2 siRNA sequence was a fully modified sequence and 4 more additional PS linkages modification on the oligonucleotides than mTTR1. (Nair, et al., J. Am. Chem. Soc. 136:16958-16961(2014). Aha1-GaNAc3 positive control was used as a standard control, targeted to the housekeeper ahsa1. This was used as both negative and positive control, hybridizing the cell lysates either to the screening target or to an ahsa1-specific probe. Table e1 lists the sequences of the 2 control siRNAs and the structure of the GalNAc cluster. Table e1. Control siRNA sequence and targets. (Images discloses SEQ ID NOS 36, 47-48, 59, and 47-48, respectively, in order of appearance)

TTR = experiment: Dose-response screen of GalNAc-conjugated siRNAs in primary mouse hepatocytes, bDNA read-out; assay type: cell-based; conditions: direct incubation 72 hours
Experimental: as §1, §2

**Q.** What does the source list for “aha1-GalNAc3 positive control: standard control siRNA targeted to the housekeeper ahsa1, conjugated to trivalent GalNAc cluster at 3′ end (SEQ ID NO: 41/42) (chain 1 UCUCGUGGCCUUAAUGAAA; chain 2 UUUCAUUAAGGCCACGAGAUU; chain 1: linkages s2 o16 (s phosphorothioate, o phosphodiester), 3' {GalNAc3}, sugars by position and methylation of C not given here; chain 2: linkages s2 o16 s2 (s phosphorothioate, o phosphodiester), sugars by position and methylation of C not given here; further chemistry not fully specified)”?
**A.** IC50 (ahsa1): 1.5 nM; IC80 (ahsa1): 5.9 nM; Max. KD (ahsa1): 96%

**Q.** With “mTTR2-GalNAc3 positive control: fully modified siRNA against mouse TTR conjugated to trivalent GalNAc cluster at the 3′ end (SEQ ID NO: 39/40; Nair et al.) (chain 1 AACAGUGUUCUUGCUCUAUAA; chain 2 UUAUAGAGCAAGAACACUGUUUU; chain 1: linkages s2 o18 (s phosphorothioate, o phosphodiester), 3' {GalNAc3}, sugars by position and methylation of C not given here; chain 2: linkages s2 o18 s2 (s phosphorothioate, o phosphodiester), sugars by position and methylation of C not given here; fully modified, Nf 2'-fluoro, further chemistry not fully specified)” as the substance, how does the IC80 (TTR; TTR signal normalized to gapdh) read?
**A.** Its IC80 is 0.3 nM.

**Q.** And the IC50 (TTR; TTR signal normalized to gapdh, Xlfit)?
**A.** Its IC50 is 0.1 nM.

**Q.** What about the “Max. KD” value (TTR; highest concentration 1 μM) of the same substance?
**A.** The value was 96%.
